Earlier results in patent US9782432B2, “Polymers and methods thereof for wound healing” (RUTGERS, THE STATE UNIVERSITY OF NEW JERSEY, priority 2012, dated 2017).
Read-outs that look alike come from different tables or passages of the source.

Experiments:
adhesions [1] = settings: 5 mg/kg/day intramuscularly, 7 days
adhesions [2] = settings: 0.35, 0.7 or 1.4 mg every 6 hours for 48 or 96 hours
adhesions [3] = test system: adhesions
adhesion formation [4] = settings: rats, IP injection
adhesion formation [5] = settings: dog, IP injection
adhesion formation [6] = settings: rats with intact pineal glands, injections of melatonin
adhesion formation [7] = test system: adhesion formation
adhesions [8] = settings: IP injections, rat model

In the case of O=C(O)COC(=O)Cc1ccccc1Nc1c(Cl)cccc1Cl [aceclofenac], the “decrease in fibroblasts at the injury site” value (adhesions [1]) is given as 8% and the “fibrous area, treatment vs control group” value (adhesions [1]) is given as “significant difference”.
For CC(=O)Oc1ccccc1C(=O)O [aspirin, acetylsalicylic acid], the “adhesions vs untreated control” value (adhesions [2]) is listed as “no group was significantly different from the untreated control”, the adhesion rate (adhesions [3]; 1.7 mg/kg/day for 5 days after surgery) is listed as 44% and the adhesion rate (adhesions [3]; 28.0 mg/kg/day for 5 days after surgery) is listed as 77%.
For COc1ccc2[nH]cc(CCNC(C)=O)c2c1 [melatonin], the adhesion formation (adhesion formation [4]) is given as “significantly reduce abdominal adhesion formation”, the adhesion formation (adhesion formation [5]) is given as “significantly reduce adhesion formation” and the adhesions vs control (adhesion formation [6]) is given as “significantly less adhesions than the control”.
In the case of vitamin E, the “reduction of adhesion formation” value (adhesion formation [7]; IP injection) is listed as 80%, the “reduction of adhesion formation” value (adhesion formation [7]; oral or intramuscular administration) is listed as “not when administered orally or intramuscularly” and the abdominal adhesion formation (adhesion formation [7]; rats, injected intraperitoneally) is listed as “significantly reduce abdominal adhesion formation”. The “efficacy compared with Seprafilm” value (adhesions [8]) was “as effective as Seprafilm”.
